Source: the supplement of paper PMC7801607

These compounds were tested on Plasmodium falciparum Dd2 asexual blood stage.
`CCc1nc(N)nc(N)c1C#CCc1ccccc1` gave an IC50 greater than 5 µM.
`O=C(Nc1nnc(-c2ccccc2)o1)c1ccc(F)cc1` showed an IC50 greater than 5 µM.
`COc1ccc2cc3[n+](cc2c1OCCN(CCn1cncn1)Cc1ccc(F)cc1F)CCc1cc2c(cc1-3)OCO2` showed an IC50 greater than 5 µM.
In the case of `CN(C)[C@@H]1C(=O)C(C(N)=O)=C(O)[C@@]2(O)C(=O)C3=C(O)c4c(O)c(NC(=O)CN5CCCC5)cc(F)c4C[C@H]3C[C@@H]12`, the IC50 is reported as greater than 5 µM.
For `Fc1ccc(-c2nc(-c3c[nH]c4ccc(Br)cc34)[nH]c2-c2ccc(F)cc2)cc1`, the IC50 was 4.99 µM.
Work on `O=C(c1nc2c(C(F)(F)F)cc(C3CC3)cn2c1Cl)N1CCN([C@H]2CC[C@H](O)CC2)C(=O)C1` yielded an IC50 greater than 5 µM.
For `O=C(O)c1sccc1S(=O)(=O)n1ccc2cc(Br)ccc21`, the IC50 was greater than 5 µM.
In the case of `CCCCN1C[C@H](O)[C@@H](O)[C@H](O)[C@H]1CO`, the IC50 is reported as greater than 5 µM.
For `Nc1nnc(-c2ccc(Cl)cc2)s1`, the IC50 was greater than 5 µM.
For `O=C(NO)C1(CS(=O)(=O)c2ccc(Oc3ccc(Cl)cc3)cc2)CCOCC1`, the IC50 was greater than 5 µM.
With `CC(C)(C)c1cccc(-c2nc3cc(C(=N)N)ccc3[nH]2)c1O` the IC50 was greater than 5 µM.
In the case of `Nc1nc2c(ncn2/C=C2/CC2(CO)CO)c(=O)[nH]1`, the IC50 is reported as greater than 5 µM.
`CC[C@H]1OC(=O)[C@H](C)[C@@H](O[C@H]2C[C@@](C)(OC)[C@@H](O)[C@H](C)O2)[C@H](C)[C@@H](O[C@@H]2O[C@H](C)C[C@H](N(C)C)[C@H]2O)[C@](C)(O)C[C@@H](C)C(=O)[C@H](C)[C@@H](O)[C@]1(C)O` was tested, and the IC50 was greater than 5 µM.
For `N[C@H](CCC(=O)N[C@@H](Cc1c[nH]c2ccccc12)C(=O)O)C(=O)O`, the IC50 was greater than 5 µM.
With `Cc1ccc(N2CCC(CCOc3ccc(S(C)(=O)=O)cc3)CC2)nn1` the IC50 was greater than 5 µM.
`Cn1c2ccccc2c(=O)c2c(O)cccc21` was tested, and the IC50 was greater than 5 µM.
`CCc1cc(O)c(Oc2cccnc2N)cc1F` was tested, and the IC50 was greater than 5 µM.
Work on `CCc1ccc(C2CC(C(F)(F)F)n3ncc(C(=O)NCc4ccc(OC)cc4)c3N2)cc1` (stereo not given) yielded an IC50 greater than 5 µM.
`CC(C)Oc1cccc(NC(=O)c2ccccc2C(F)(F)F)c1` showed an IC50 greater than 5 µM.
`CC(=O)N1CCN(c2ccc(OCC3COC(Cn4ccnc4)(c4ccc(Cl)cc4Cl)O3)cc2)CC1` (stereo not given) showed an IC50 greater than 5 µM.
`O=C(O)C[C@H]1CC[C@H](c2ccc(-c3ccc(Nc4ccc(C(F)(F)F)nc4)cn3)cc2)CC1` gave an IC50 greater than 5 µM.
In the case of `CC#C[C@]1(O)CC[C@H]2[C@@H]3CCC4=CC(=O)CCC4=C3[C@@H](c3ccc(N(C)C)cc3)C[C@@]21C`, the IC50 is reported as greater than 5 µM.
`NC(=O)c1[nH]c2ccc(S(N)(=O)=O)cc2c1-c1ccccc1` was tested, and the IC50 was greater than 5 µM.
Work on `C[C@H](NC(CC(=O)c1ccccc1C(F)(F)F)C(=O)O)c1ccccc1` (stereo not given in full) yielded an IC50 greater than 5 µM.
`Oc1cc(-c2cccc3ccccc23)[nH]n1` was tested, and the IC50 was greater than 5 µM.
For `COc1ccc(C2CNC(=O)C2)cc1OC1CCCC1` (stereo not given), the IC50 was greater than 5 µM.
With `CONC(=N)c1ccc(-c2ccc(-c3ccc(C(=N)NOC)cc3)o2)cc1` the IC50 was greater than 5 µM.
`O=C(NCCN1CCCCC1)c1cccc(C(F)(F)F)c1` gave an IC50 greater than 5 µM.
`Cc1ccc(Oc2ccccc2-c2csc(NC3=NCCCN3)n2)c(C)c1` showed an IC50 greater than 5 µM.
`CC(C)Oc1ccc(-n2cnc3cc(/C=C\c4ccc(C(C)(C)O)cc4)ccc32)cc1` was tested, and the IC50 was greater than 5 µM.
`N[C@@H]1CN(c2c(F)cc3c(=O)c(C(=O)O)cn([C@@H]4C[C@@H]4F)c3c2Cl)CC12CC2` showed an IC50 greater than 5 µM.
For `C=CCc1cc(Cc2cnc(N)nc2N)cc(OC)c1O`, the IC50 was greater than 5 µM.
With `Cc1cccc(CC(=O)N[C@H]2CCOC2=O)c1` the IC50 was greater than 5 µM.
With `Cc1ccc(C)c(OCCCCCCN2C[C@H](O)[C@@H](O)[C@H](O)[C@H]2CO)c1` the IC50 was greater than 5 µM.
With `O=C(/C=C/n1cnc(-c2cc(C(F)(F)F)cc(C(F)(F)F)c2)n1)NNc1cnccn1` the IC50 was greater than 5 µM.
`COc1cc(C2C3=C(CC(C)(C)CC3=O)Nc3ccccc3N2C(C)=O)ccc1OCc1ccccc1` (stereo not given) gave an IC50 greater than 5 µM.
For `CC(=N)N1CC[C@H](SC2=C(C(=O)O)N3C(=O)[C@@H]([C@@H](C)O)[C@H]3C2)C1`, the IC50 was greater than 5 µM.
`O=C(Cn1cnc2ccccc2c1=O)Nc1ccccc1` showed an IC50 greater than 5 µM.
`COc1cc(C(C(=O)NC2CCCCC2)N(C(=O)Cc2c[nH]c3ccccc23)c2ccc(C(C)C)cc2)cc(OC)c1OC` (stereo not given) gave an IC50 greater than 5 µM.
Work on `Cc1cc(CCCOc2c(C)cc(-c3noc(C(F)(F)F)n3)cc2C)on1` yielded an IC50 greater than 5 µM.
With `CO[C@@]1(NC(=O)Cc2cccs2)C(=O)N2C(C(=O)O)=C(COC(N)=O)CS[C@@H]21` the IC50 was greater than 5 µM.
With `CCc1ccccc1OCCN1CCCCCC1` the IC50 was greater than 5 µM.
In the case of `CC(Cc1ccccc1)C(=O)Nc1ccc(Cl)cc1C(=O)O` (stereo not given), the IC50 is reported as greater than 5 µM.
`N#C/C(=C1/SC[C@H](c2ccc(Cl)cc2Cl)S1)n1ccnc1` gave an IC50 greater than 5 µM.
Work on `Cc1nc(Nc2ccc(F)cc2)nc(N2CCc3ccccc3C2C)c1C` (stereo not given) yielded an IC50 greater than 5 µM.
Compound `Nc1nc(=O)c(Br)c(-c2cccc(Cl)c2)[nH]1` has an IC50 greater than 5 µM.
`O=C(NNC(=S)Nc1ccc(Cl)cc1)c1ccncc1` was tested, and the IC50 was greater than 5 µM.
Compound `C[C@@H]1O[C@@H]1P(=O)(O)O` has an IC50 greater than 5 µM.
`O=P(O)(O)C(CCCc1cccc(Oc2ccccc2)c1)S(=O)(=O)O` (stereo not given) was tested, and the IC50 was greater than 5 µM.
`O=C(Nc1ncc(Cc2cccc3ccccc23)s1)C1CCCCC1` gave an IC50 greater than 5 µM.
Work on `COc1cc(Cc2cc(N)nc(N)n2)cc(OC)c1OC` yielded an IC50 greater than 5 µM.
`COc1cc(NC(=O)CN2C(=O)NC(c3ccccc3)(c3ccccc3)C2=O)cc(OC)c1` showed an IC50 greater than 5 µM.
Compound `CCCC(=O)OCCc1ccccc1` has an IC50 greater than 5 µM.
`O=C(NCc1ncc(C(F)(F)F)cc1Cl)c1c(Cl)cccc1Cl` showed an IC50 greater than 5 µM.
With `COc1ccc2sc3c(c2c1)NC(C)CNC3=O` (stereo not given) the IC50 was greater than 5 µM.
In the case of `Cc1cc(-c2ccccc2)c(C(=O)C(=O)Nc2ccc(N3CCN(c4ncc(F)cn4)CC3)cc2)n1C`, the IC50 is reported as greater than 5 µM.
In the case of `CCNC(=O)Nc1cc2c(-c3ccnc(C)c3)ccc(CNC(=O)OC)c2cn1`, the IC50 is reported as greater than 5 µM.
Compound `NC(=O)[C@@H]1CC[C@@H]2CN1C(=O)N2OS(=O)(=O)O` has an IC50 greater than 5 µM.
With `O=C(NCc1ccc2c3c(cccc13)C(=O)N2)c1cccs1` the IC50 was greater than 5 µM.
Compound `CC(=O)NC[C@H]1CN(c2ccc(N3CCSCC3)c(F)c2)C(=O)O1` has an IC50 greater than 5 µM.
In the case of `O=C(Nc1ccc(Cl)c(C(F)(F)F)c1)C(CCCl)C(=O)Nc1ccc(Cl)c(C(F)(F)F)c1`, the IC50 is reported as greater than 5 µM.
`C[N+]1(C)CCCC(OC(=O)C(O)(c2ccccc2)c2ccccc2)C1` (stereo not given) gave an IC50 greater than 5 µM.
For `O=C(CC1Sc2ncnn2C1=O)Nc1ccc(Br)cc1` (stereo not given), the IC50 was greater than 5 µM.
Compound `O=C(NCc1ccccc1Cl)c1cnc2ccccc2n1` has an IC50 greater than 5 µM.
With `CCc1oc2ccccc2c1C(=O)c1ccc(O)cc1` the IC50 was greater than 5 µM.
In the case of `O=C(NC12CC3CC(CC(C3)C1)C2)c1cc2ccccc2[nH]1`, the IC50 is reported as greater than 5 µM.
With `C[C@H](NC(=O)C(=O)Nc1ccccc1C(C)(C)C)C(=O)N[C@@H](CC(=O)O)C(=O)COc1c(F)c(F)cc(F)c1F` the IC50 was greater than 5 µM.
`NC(=O)c1ccc(I)c([N+](=O)[O-])c1` was tested, and the IC50 was greater than 5 µM.
`COc1ccc(NS(=O)(=O)c2ccc(Cl)s2)cn1` was tested, and the IC50 was greater than 5 µM.
In the case of `O=C(O)C(Cc1c[nH]c2ccccc12)N1C(=O)c2ccccc2C1=O` (stereo not given), the IC50 is reported as greater than 5 µM.
`O=S(=O)(Nc1ccccc1)c1ccc(NC(=S)Nc2ccccc2)cc1` showed an IC50 greater than 5 µM.
`N[C@H]1CCC[C@H]1C(=O)O` showed an IC50 greater than 5 µM.
`O=C(O)[C@H]1C2CCC(CC2)[C@@H]1Nc1nc(-c2c[nH]c3ncc(F)cc23)ncc1F` gave an IC50 greater than 5 µM.
For `CC[C@H](CO)Nc1nc(NCc2ccccc2)c2ncn(C(C)C)c2n1`, the IC50 was greater than 5 µM.
With `O=S(=O)(Nc1cccc2cccnc12)c1ccccc1` the IC50 was greater than 5 µM.
`O=C(c1cc(O)nc2ccccc12)N1CCN(c2ccccc2)CC1` was tested, and the IC50 was greater than 5 µM.
`O=C(NC(=O)N1CCCc2ccccc21)c1cccc(Cl)c1` gave an IC50 greater than 5 µM.
With `C[C@H]1[C@@H](c2cccc(C(F)(F)F)c2)OC(=O)N1C(=O)NCc1cncc2ccccc12` the IC50 was greater than 5 µM.
With `O=C1[C@H](CC[C@H](O)c2ccc(F)cc2)[C@@H](c2ccc(O)cc2)N1c1ccc(F)cc1` the IC50 was greater than 5 µM.
In the case of `CC(C)(C)NC(=O)N[C@H](C(=O)N1C[C@H]2[C@@H]([C@H]1C(=O)NC(CC1CCC1)C(=O)C(N)=O)C2(C)C)C(C)(C)C` (stereo not given in full), the IC50 is reported as greater than 5 µM.
For `CC(C)(C)c1cc(C(=O)/C(C#N)=N/Nc2cccc(Cl)c2)no1`, the IC50 was greater than 5 µM.
Work on `NC(=O)c1nccn([C@@H]2O[C@H](CO)[C@@H](O)[C@H]2O)c1=O` yielded an IC50 greater than 5 µM.
With `Nc1nc(O)ncc1F` the IC50 was greater than 5 µM.
Work on `Nc1ccc2oc(=O)ccc2c1I` yielded an IC50 greater than 5 µM.
In the case of `COc1cc2c(O)c3c(c(-c4ccc5c(c4)OCO5)c2cc1OC)C(=O)OC3`, the IC50 is reported as greater than 5 µM.
With `FC(F)(F)c1cc(C(F)(F)F)c2ccc3nc(-c4nnco4)cn3c2n1` the IC50 was greater than 5 µM.
In the case of `CCC(C)n1ncn(-c2ccc(N3CCN(c4ccc(OCC5COC(Cn6cncn6)(c6ccc(Cl)cc6Cl)O5)cc4)CC3)cc2)c1=O` (stereo not given), the IC50 is reported as 4.35 µM.
For `CCc1cc(CCCOc2c(C)cc(-c3noc(C(F)(F)F)n3)cc2C)on1`, the IC50 was greater than 5 µM.
`NC[C@H]1OB(O)c2c(OCCCO)cccc21` showed an IC50 greater than 5 µM.
Compound `CS(=O)(=O)c1ccc(Oc2ccc(Cl)cc2)cc1` has an IC50 greater than 5 µM.
With `OB1OCc2cc(Cl)ccc21` the IC50 was greater than 5 µM.
Compound `CCCCCCCCC(CP(=O)(O)C(C)N)C(=O)O` (stereo not given) has an IC50 greater than 5 µM.
`c1ccc(-c2nnc3c4ccccc4c(N4CCNCC4)nn23)cc1` showed an IC50 greater than 5 µM.
`CC(C)Nc1ncnc2c1cnn2-c1ccc(Cl)cc1` was tested, and the IC50 was greater than 5 µM.
For `NCCCc1ccccc1C(=O)Nc1ncc([N+](=O)O)s1`, the IC50 was greater than 5 µM.
In the case of `c1cc(CN2CCCNCCNCCCNCC2)ccc1CN1CCCNCCNCCCNCC1`, the IC50 is reported as greater than 5 µM.
Work on `Cc1c(N)cccc1Cn1ccc(OCCc2cccs2)cc1=O` yielded an IC50 greater than 5 µM.
`COc1cc(C(C)(C)CCCC(C)C)cc(OC)c1OC` was tested, and the IC50 was greater than 5 µM.
`N#Cc1cc([N+](=O)[O-])ccc1Oc1ccccc1Cl` was tested, and the IC50 was greater than 5 µM.
In the case of `CCc1cc(Cc2cnc(N)nc2N)cc2c1N(C)CCC2C` (stereo not given), the IC50 is reported as greater than 5 µM.
`COc1cc(Cc2cnc(N)nc2N)c2c(c1OC)OC(C1CC1)C=C2` (stereo not given) was tested, and the IC50 was greater than 5 µM.
For `CNc1nc(=O)[nH]cc1F`, the IC50 was greater than 5 µM.
`Nc1nc2c(Cc3cccnc3)c[nH]c2c(=O)[nH]1` gave an IC50 greater than 5 µM.
With `Cc1ncc([N+](=O)[O-])n1CC(O)CN1CCOCC1` (stereo not given) the IC50 was greater than 5 µM.
In the case of `NC1(C(=O)O)CCP(=O)(O)CC1` (stereo not given), the IC50 is reported as greater than 5 µM.

What follows are compounds tested on Plasmodium falciparum NF54 asexual blood stage.
`CCc1nc(N)nc(N)c1C#CCc1ccccc1` was tested, and the IC50 was 703 nM.
`O=C(Nc1nnc(-c2ccccc2)o1)c1ccc(F)cc1` showed an IC50 of 472 nM.
`COc1ccc2cc3[n+](cc2c1OCCN(CCn1cncn1)Cc1ccc(F)cc1F)CCc1cc2c(cc1-3)OCO2` was tested, and the IC50 was 138 nM.
For `CN(C)[C@@H]1C(=O)C(C(N)=O)=C(O)[C@@]2(O)C(=O)C3=C(O)c4c(O)c(NC(=O)CN5CCCC5)cc(F)c4C[C@H]3C[C@@H]12`, the IC50 was 1500 nM.
For `Fc1ccc(-c2nc(-c3c[nH]c4ccc(Br)cc34)[nH]c2-c2ccc(F)cc2)cc1`, the IC50 was 765 nM.
